# From US20030018044A1, “Treatment of ocular disease” (priority 2000, published 2003)
# Assays:
# human skin mast cells = settings: cited from earlier work
# eye = assay: ocular toxicity after direct intraocular injection; assay type: in vivo, patient
# Text: The toxicity of tacrolimus, which had been reported with tacrolimus administered systemically, was thought to limit its intraocular use. The toxicity of tacrolimus administered intraocularly had not been evaluated. Ocular toxicity may manifest as a gross and/or histologic retinal and/orvitreous toxic reaction. Evidence of such a toxic reaction may include one or more of white vitreous bodies, white vitreous opacities, electroretinography abnormalities such as reduction in mean B-wave amplitude in both scotopic and photopic conditions, occlusion of the temporal retinal vessels, and fibrin deposits.
# As used herein, a lack of substantial toxicity encompasses both the absence of any manifestations of toxicity, as well as manifestations of toxicity which one skilled in the art would consider not sufficiently detrimental to decrease or cease treatment.
# The intravenous solution form of tacrolimus may be diluted to achieve the indicated concentration using 0.9% NaCl or 5% dextrose, or an organic solvent such as dimethylsulfoxide (DMSO) or alcohol, preferably a low molecular weight alcohol. Intraocular administration may be any of the routes and formulations previously described. For injection, either a solution, emulsion, suspension of a liquid, capsular formulation of microspheres or liposomes, etc. may be used.
# [1] = cited from earlier work
# atopic dermatitis = settings: topical, cited from earlier work
smiles,measurement,setting,value
C=CC[C@@H]1/C=C(\C)C[C@H](C)C[C@H](OC)[C@H]2O[C@@](O)(C(=O)C(=O)N3CCCC[C@H]3C(=O)O[C@H](/C(C)=C/[C@@H]3CC[C@@H](O)[C@H](OC)C3)[C@H](C)[C@@H](O)CC1=O)[C@H](C)C[C@@H]2OC [Tacrolimus],anti-IgE-triggered histamine release,human skin mast cells,inhibits
same,prostaglandin D2 synthesis,human skin mast cells,inhibits
same,dose of direct intraocular injection without substantial toxicity,eye,up to 250 μg
same,solubility in chloroform,[1]; chloroform,very soluble
same,solubility in ethanol,[1]; ethanol,freely soluble
same,solubility in methanol,[1]; methanol,very soluble
same,solubility in water,[1]; water,practically insoluble
same,"adverse effects, treated versus control groups",atopic dermatitis; concentrations up to 0.3%,no significant difference
same,clinical improvement in atopic dermatitis,"atopic dermatitis; doses 0.03%-0.3%, after 2-3 weeks treatment",significant clinical improvement
same,local tolerability,atopic dermatitis,well tolerated locally and only occasionally causes mild irritation
